Three substances from patent publication US20100204098A1 (priority 2007, published 2010) can be followed below.

One assay deals with F. graminearum. The class given is cell-based, Fusarium graminearum.
A further assay concerns M. luteus. It counts as cell-based, Micrococcus luteus.
For the next assay, the system named is L. maculans. The class given is cell-based, Leptosphaeria maculans.
The next assay concerns F. oxysporum. It counts as cell-based, Fusarium oxysporum.
For the next assay, the system named is E. coli. The class given is cell-based, Escherichia coli.
Another assay has as its system A. rabiei. It counts as cell-based, Ascochyta rabiei.

Consider “Gm-moricinC3: Moricin-like peptide from Galleria mellonella, SEQ ID NO:5; purified from hemolymph and synthesised by Auspep (KVPIGAIKKGGKIIKKGLGVIGAAGTAHEVYSHVKNRQ; listed as Galleria mellonella)”, for which, in the assay on F. graminearum, the “activity against F. graminearum of fractions purified from hemolymph” value is listed as “activity” and the “concentration level at which activity against spores of F. graminearum was shown” value is 10 µM. In addition, the “concentration at which activity against M. luteus was shown” value in the assay on M. luteus is 100 µM. In addition, the “concentration level at which activity against spores of L. maculans was shown” value (“concentration level … of L. maculans was shown” below) in the assay on L. maculans is 100 µM. In addition, in the assay with F. oxysporum, the “concentration level at which activity against spores of F. oxysporum was shown” value is 100 µM. In addition, the “concentration at which activity against E. coli was shown” value in the assay with E. coli was determined as 100 µM.

“Gm-moricinC4/C5: Mature Gm-moricinC4 and Gm-moricinC5 from Galleria mellonella, identical mature amino acid sequences (SEQ ID NO:1 and 3), synthesised by Auspep (KVPVGAIKKGGKAIKTGLGVVGAAGTAHEVYSHIRNRH; listed as Galleria mellonella)”: in the assay on F. graminearum, the “concentration level at which activity against spores of F. graminearum was shown” value amounted to 100 µM. Also, in the assay on M. luteus, the “activity against M. luteus” value is recorded as “no activity”. Moreover, the “concentration level … of L. maculans was shown” value in the assay on L. maculans came to 100 µM. The “activity against spores of F. oxysporum” value in the assay on F. oxysporum was “no activity”. The “concentration at which activity against E. coli was shown” value in the assay with E. coli was 100 µM.

As to “Gm-moricinD: Moricin-like antifungal peptide from Galleria mellonella, SEQ ID NO:7; purified from hemolymph and synthesised by Auspep (KGIGSALKKGGKIIKGGLGALGAIGTGQQVYEHVQNRQ; listed as Galleria mellonella)”, in the assay with F. graminearum, the “activity against F. graminearum of fractions purified from hemolymph” value is listed as “activity” and the “concentration level at which activity against spores of F. graminearum was shown” value stood at 10 µM. Also, the “concentration level at which activity against spores of A. rabiei was shown” value in the assay on A. rabiei stood at 100 µM. In addition, the “activity against M. luteus” value in the assay with M. luteus is “no activity”. In addition, the “concentration level … of L. maculans was shown” value in the assay on L. maculans is 100 µM. The “concentration level at which activity against spores of F. oxysporum was shown” value with F. oxysporum is 100 µM. Also, the “activity against E. coli” value in the assay with E. coli was “no activity”.
